In patent US9340577B2, “HLA binding motifs and peptides and their uses” (priority 1992, dated 2016) one finds IC50 data, which are given here for nine sequences.

No end group written: not given here.

What all share (assay): biochemical
One assay concerns the target DR1 (DRB1*0101) (Homo sapiens, UniProt P01903+P01911, A100R/D57E/F55L/F60I/F76Y/I96L/L162R/M171V/P40L/Q125E/R42F/V115G/Y59C). The assay is classed as binding.
For the next assay, the target named is DR7 (DRB1*0701) (Homo sapiens, UniProt P01903+P01911, A100R/A102G/A103Q/D57E/D86V/E43K/F76Y/K127E/L162R/M171V/P40G/Q125H/Q99D/R33Q/R42Y/R54Q/S133A/S66F/T210M/V115G/Y107V/Y59L/Y89S). The assay is classed as binding.
A further assay addresses DRB1*0405 (Homo sapiens, UniProt P01903+P01911, A100R/A169T/D86S/F76Y/I96L/K127E/L162R/M171V/N62H/P40V/Q125Y/R42H/S133A/S149N/S66Y/V115G/V209L/W38E). The assay is classed as binding.
The next assay addresses DRB1*0901 (Homo sapiens, UniProt P01903+P01911, A100R/A103E/D57H/D86V/F55Y/F60I/F76Y/I96F/K127E/L162R/M171V/P40D/Q125H/Q99R/R33Q/R42F/S133A/S66N/T210M/V115G/W38K/Y107V/Y59G/Y89S). Format: binding.
The next assay has as its target DRB1*1201 (Homo sapiens, UniProt P01903+P01911, A100R/A169T/D57E/D86V/F55L/H45Y/K41T/L162R/M171V/P40S/Q125H/Q178H/Q39Y/Q99D/R42G/S66L/T262R/V114A/V67L/W38E/Y59H/Y61H/Y89S). The assay is classed as binding.
The next assay deals with DRB1*1501 (Homo sapiens, UniProt P01903+P01911). The assay is classed as binding.
The next assay addresses DRB4*0101 (Homo sapiens, UniProt P01903+P13762, G164S). Format: binding.
Another assay has as its target DRB1*1101 (Homo sapiens, UniProt P01903+P01911, A100R/A169T/A87E/I96F/K41T/L162R/M171V/P40S/Q125H/Q178H/Q39Y/Q99D/R42S/S66Y/T262R/V115G/W38E). Particulars: Binding affinity DRB1 *1101.
Another assay has as its target DRB5*0101 (Homo sapiens, UniProt P01903+Q30154). To be noted: Binding affinity DRB5 *0101.
The target of a further assay is DRB1*0802 (Homo sapiens, UniProt P01903+P01911, A100R/A103L/A169T/F76Y/H45Y/I96F/K41T/L162R/M171V/P40S/Q125H/Q178H/Q39Y/Q99D/R218S/R42G/S66Y/V115G/W38E). The assay is classed as binding.
The next assay deals with DRB1*1302 (Homo sapiens, UniProt P01903+P01911, A100E/A169T/K41T/L162R/M171V/P40S/Q125H/Q178H/Q39Y/Q99D/R42S/S66N/T262R/V115G/W38E/Y61H). Format: binding.
Sequence of DRB1*1302 (P01903 26-254 limits assumed, other chains not shown): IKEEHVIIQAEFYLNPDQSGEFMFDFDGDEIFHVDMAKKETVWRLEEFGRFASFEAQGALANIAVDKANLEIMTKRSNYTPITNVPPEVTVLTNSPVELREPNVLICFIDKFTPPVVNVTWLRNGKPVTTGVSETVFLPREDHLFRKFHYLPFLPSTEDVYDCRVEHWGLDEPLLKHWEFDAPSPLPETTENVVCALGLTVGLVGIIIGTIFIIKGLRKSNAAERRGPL
Another assay deals with DR4w4 (DRB1*0401) (Homo sapiens, UniProt P01903+P01911, A100K/A169T/F76Y/I96L/K127E/L162R/M171V/N62H/P40V/Q125Y/R42H/S133A/S149N/S66Y/V115G/V209L/W38E). Format: binding.

What is called IC50 is the concentration that gives 50% inhibition. Lower therefore signals greater potency in that assay.

Sequence of DRB1*1101 (P01903 26-254 limits assumed, other chains not shown): as above

As to PEWIDRLTVLQHSFN [Peptide 89.0070], the IC50 against DR1 (DRB1*0101) is 2.61 µM; against DR7 (DRB1*0701), over 20 µM; against DRB1*0405, 0.079 µM; at DRB1*0901, 4.15 µM; against DRB1*1201, 0.203 µM; against DRB1*1501, 0.982 µM. In addition, the IC50 against DRB4*0101 is 0.013 µM; at DRB1*1101 it was 2.64 µM; on DRB5*0101, over 20 µM.

SEIYIIEETTCTLVA [Peptide 90.0250]: the IC50 against DR7 (DRB1*0701) is over 20 µM; on DRB1*0405, 8.08 µM; at DRB1*0802 it was over 20 µM; at DRB1*0901, over 20 µM; on DRB1*1201 it was over 20 µM; against DRB1*1302, 0.399 µM. In addition, the IC50 was 0.231 µM at DRB4*0101, over 20 µM at DRB1*1101 and over 20 µM on DRB5*0101.

Take ELQMALKGLAQSKYN [Peptide 90.0005]: the IC50 at DR1 (DRB1*0101) was 0.081 µM; against DR4w4 (DRB1*0401), 2.22 µM; at DR7 (DRB1*0701), over 20 µM; on DRB1*0405, 5.95 µM; on DRB1*0802, 0.127 µM; against DRB1*0901, 0.348 µM. Further, the IC50 on DRB1*1201 was 0.041 µM; against DRB1*1302, 10 µM; against DRB1*1501, over 20 µM; on DRB1*1101 it was 0.064 µM; at DRB5*0101 it was 0.475 µM.

With IYIIEEDTCTMVTGK [Peptide 90.0204], the IC50 on DR1 (DRB1*0101) was 2.23 µM; against DR4w4 (DRB1*0401), 0.151 µM; against DR7 (DRB1*0701) it was 8.19 µM; at DRB1*0405, 18.7 µM; against DRB1*0802, over 20 µM; on DRB1*0901 it was over 20 µM. Moreover, the IC50 on DRB1*1201 is 16.5 µM; at DRB1*1302, 0.994 µM; at DRB1*1501 it was 18.7 µM; at DRB1*1101 it was 11.9 µM; at DRB5*0101, over 20 µM.

Regarding ESVFSSDEISFAGIV [Peptide 90.0195], the IC50 at DR1 (DRB1*0101) is 2.38 µM; on DR4w4 (DRB1*0401) it was 0.033 µM; at DR7 (DRB1*0701), 0.609 µM; on DRB1*0405, 8.58 µM; on DRB1*0802 it was over 20 µM; against DRB1*0901, 0.672 µM. The IC50 was over 20 µM at DRB1*1201; 0.235 µM against DRB1*1302; 1.98 µM against DRB1*1501; over 20 µM on DRB1*1101; over 20 µM on DRB5*0101.

For the sequence CWNYIDDNLRNALDG [Peptide 90.0041], the concentration for half-maximal inhibition (IC50) against DR1 (DRB1*0101), against DR7 (DRB1*0701), at DRB1*0405, on DRB1*0802, on DRB1*0901 and against DRB1*1201 was over 20 µM each time. Also, the IC50 against DRB1*1302, on DRB1*1501, at DRB4*0101, on DRB1*1101 and on DRB5*0101 was over 20 µM each time.

With GVYYIKDGDTTYYVQ [Peptide 90.0216], the IC50 is 1.55 µM against DR1 (DRB1*0101); 2.48 µM on DR4w4 (DRB1*0401); 7.09 µM against DRB1*0405; 5.62 µM against DRB1*0802; 1.62 µM against DRB1*0901; 5.74 µM on DRB1*1201. Moreover, the IC50 against DRB1*1501, on DRB4*0101, on DRB1*1101 and at DRB5*0101 was over 20 µM in each case.

Take LSHVKIPVVYRLVWD [Peptide 90.0020]: the IC50 on DR1 (DRB1*0101) came out at 0.079 µM; against DR4w4 (DRB1*0401) it was 3.95 µM; on DRB1*0405, 0.525 µM; against DRB1*0802 it was 3.57 µM; against DRB1*0901, 0.469 µM; at DRB1*1201, 0.1 µM. Also, the values for the IC50 against DRB1*1302, on DRB4*0101 and at DRB5*0101 were 0.329 µM, 0.022 µM and 1.34 µM, respectively.

For IWEVHMENESIYCPD [Peptide 90.0237], the IC50 was 1.78 µM at DR1 (DRB1*0101); 3.38 µM on DR4w4 (DRB1*0401); over 20 µM against DR7 (DRB1*0701); over 20 µM at DRB1*0405; over 20 µM against DRB1*0802; 5.49 µM at DRB1*0901. Besides, the IC50 at DRB1*1201 was over 20 µM; against DRB1*1302, 1.96 µM; on DRB1*1501 it was over 20 µM; at DRB1*1101, over 20 µM; on DRB5*0101 it was over 20 µM.
